Measured values reported in PubChem BioAssay AID248 (DTP/NCI, 2004).
Values joined by “and” are separate entries in the source; they are usually repeats but may differ in a detail not shown here. Identical values can stand only once. Toxic doses and inconclusive results are not listed. No stated cut-off is given here; in the data, active means T/C of 150% or more; inactive means T/C below 125%. Square brackets hold non-standard residues; d marks the D form. Peptide text beside a SMILES is read from it. * marks the point of attachment. ξ: configuration not given here. Cbz = O=C(OCc1ccccc1)*; ξI = CCC(C)C(N)C(=O)O

Test system: L1210 leukemia ip in BDF1 mice, survival T/C
Test: NCI In Vivo Anticancer Drug Screen. Data for tumor model L1210 Leukemia (intraperitoneal) in B6D2F1 (BDF1) mice
Settings: endpoint: mean survival time, higher = longer survival
Method in brief: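 Each compound was tested against a transplantable tumor grown in mice. The endpoint was survival, with treated animals benchmarked against vehicle controls as a simple ratio.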

[1] = dose: 100.0 mg/kg/injection, schedule: Q01DX001 (ip), vehicle: carboxymethylcellulose (CMC)
[2] = dose: 200.0 mg/kg/injection, schedule: Q01DX001 (ip), vehicle: carboxymethylcellulose (CMC)
[3] = dose: 400.0 mg/kg/injection, schedule: Q01DX001 (ip), vehicle: carboxymethylcellulose (CMC)
[4] = dose: 100.0 mg/kg/injection, schedule: Q01DX009 (ip), vehicle: saline with Tween-80
[5] = dose: 100.0 mg/kg/injection, schedule: Q01DX001 (ip), vehicle: saline with Tween-80
[6] = dose: 200.0 mg/kg/injection, schedule: Q01DX001 (ip), vehicle: saline with Tween-80
[7] = dose: 400.0 mg/kg/injection, schedule: Q01DX001 (ip), vehicle: saline with Tween-80
[8] = dose: 100.0 mg/kg/injection, schedule: Q04DX003 (ip), vehicle: saline with Tween-80
[9] = dose: 200.0 mg/kg/injection, schedule: Q04DX003 (ip), vehicle: saline with Tween-80
[10] = dose: 400.0 mg/kg/injection, schedule: Q04DX003 (ip), vehicle: saline with Tween-80

Measured: T/C

CC1=CC(=O)[C@@H](O)[C@]2(C)[C@H]3[C@@]4(O)OC[C@]35[C@H]([C@@H](C)[C@H]4O)[C@@H](OC(=O)c3ccccc3)C(=O)O[C@@H]5C[C@@H]12
inactive: dose: 0.25 mg/kg/injection, schedule: Q01DX009 (ip), vehicle: saline with Tween-80 102 % of control | dose: 0.5 mg/kg/injection, schedule: Q01DX009 (ip), vehicle: saline with Tween-80 103 % of control | dose: 1.0 mg/kg/injection, schedule: Q01DX009 (ip), vehicle: saline with Tween-80 103 % of control | dose: 2.0 mg/kg/injection, schedule: Q01DX009 (ip), vehicle: saline with Tween-80 108 % of control | dose: 4.0 mg/kg/injection, schedule: Q01DX009 (ip), vehicle: saline with Tween-80 111 % of control

CONP(=O)(Oc1ccccc1)Oc1ccccc1
inactive: [1] 95 % of control | [2] 95 % of control | [3] 97 % of control

O=C1CCC(C(=O)NC(Cc2cncn2Cc2ccccc2)C(=O)NC(COCc2ccccc2)Cc2c[nH]c3ccccc23)N1 (configuration not stated)
inactive: [4] 96 % of control | dose: 200.0 mg/kg/injection, schedule: Q01DX009 (ip), vehicle: saline with Tween-80 104 % of control | dose: 400.0 mg/kg/injection, schedule: Q01DX009 (ip), vehicle: saline with Tween-80 94 % of control

CCNC(=S)NNC(=O)c1ccc(N=NN(C)C)cc1
inactive: dose: 100.0 mg/kg/injection, schedule: Q04DX002 (ip), vehicle: saline with Tween-80 100 % of control | dose: 200.0 mg/kg/injection, schedule: Q04DX002 (ip), vehicle: saline with Tween-80 94 % of control | dose: 400.0 mg/kg/injection, schedule: Q04DX002 (ip), vehicle: saline with Tween-80 100 % of control

CC1(C)C/C(=C\c2ccc(Cl)cc2)C(=O)c2ccccc21
inactive: dose: 100.0 mg/kg/injection, schedule: Q01DX009 (ip), vehicle: Klucel (hydroxypropylcellulose) (HPC) 97 % of control | dose: 100.0 mg/kg/injection, schedule: Q04DX003 (ip), vehicle: Klucel (hydroxypropylcellulose) (HPC) 95 % of control | dose: 200.0 mg/kg/injection, schedule: Q01DX009 (ip), vehicle: Klucel (hydroxypropylcellulose) (HPC) 93 % of control | dose: 200.0 mg/kg/injection, schedule: Q04DX003 (ip), vehicle: Klucel (hydroxypropylcellulose) (HPC) 92 % of control | dose: 400.0 mg/kg/injection, schedule: Q01DX009 (ip), vehicle: Klucel (hydroxypropylcellulose) (HPC) 97 % of control | dose: 400.0 mg/kg/injection, schedule: Q04DX003 (ip), vehicle: Klucel (hydroxypropylcellulose) (HPC) 92 % of control

CCN(c1ccccc1)S(=O)(=O)C(C)S(=O)(=O)N(CC)c1ccccc1
inactive: [5] 97 % of control | [6] 94 % of control | [7] 103 % of control

CCCC(=O)C(CCN(C)C)c1ccccn1 (configuration not stated)
inactive: dose: 44.0 mg/kg/injection, schedule: Q01DX Z (ip), vehicle: methylcellulose (MC) 94 % of control | dose: 66.0 mg/kg/injection, schedule: Q01DX Z (ip), vehicle: methylcellulose (MC) 107 % of control

NN1C(=O)c2c(Cl)c(Cl)c(Cl)c(Cl)c2C1=O
inactive: [5] 87 % of control | [6] 87 % of control | [7] 93 % of control

CC1CC/C(=N\N(C)C)c2ccccc21 (configuration not stated)
inactive: [4] 120 % of control | [8] 117 % of control | [9] 103 % of control | [10] 105 % of control

CCOC(=O)CNC(=O)N(CCCl)N=O
inactive: dose: 150.0 mg/kg/injection, schedule: Q01DX Z (ip), vehicle: carboxymethylcellulose (CMC) 102 % of control | dose: 250.0 mg/kg/injection, schedule: Q01DX Z (ip), vehicle: carboxymethylcellulose (CMC) 112 % of control

CCC(C)C(NC(=O)CNC(=O)OCc1ccccc1)C(=O)OC (stereo not drawn) (Cbz-Gly-[ξI]-OMe)
inactive: [8] 101 % of control | [9] 98 % of control | [10] 96 % of control

CCOC(=O)c1oc2c(C(C)=O)c(O)ccc2c1C
inactive: dose: 100.0 mg/kg/injection, schedule: Q04DX002 (ip), vehicle: Klucel (hydroxypropylcellulose) (HPC) 101 % of control and 103 % of control and 92 % of control | dose: 200.0 mg/kg/injection, schedule: Q04DX002 (ip), vehicle: Klucel (hydroxypropylcellulose) (HPC) 101 % of control and 103 % of control and 92 % of control | dose: 400.0 mg/kg/injection, schedule: Q04DX002 (ip), vehicle: Klucel (hydroxypropylcellulose) (HPC) 108 % of control | dose: 800.0 mg/kg/injection, schedule: Q04DX002 (ip), vehicle: Klucel (hydroxypropylcellulose) (HPC) 93 % of control and 95 % of control

O=C(c1ccc2cc(Cl)c3ccccc3c2c1)C(Br)CBr (configuration not stated)
inactive: dose: 55.0 mg/kg/injection, schedule: Q01DX Z (ip), vehicle: methylcellulose (MC) 88 % of control | dose: 83.0 mg/kg/injection, schedule: Q01DX Z (ip), vehicle: methylcellulose (MC) 93 % of control | dose: 125.0 mg/kg/injection, schedule: Q01DX Z (ip), vehicle: methylcellulose (MC) 93 % of control

O=C(O)CNCCN1CC(=O)N(Cc2ccccc2)C1=S
inactive: [1] 100 % of control | dose: 100.0 mg/kg/injection, schedule: Q01DX009 (ip), vehicle: carboxymethylcellulose (CMC) 104 % of control | dose: 100.0 mg/kg/injection, schedule: Q04DX002 (ip), vehicle: carboxymethylcellulose (CMC) 94 % of control and 103 % of control | dose: 100.0 mg/kg/injection, schedule: Q04DX003 (ip), vehicle: carboxymethylcellulose (CMC) 100 % of control | [2] 103 % of control | dose: 200.0 mg/kg/injection, schedule: Q01DX009 (ip), vehicle: carboxymethylcellulose (CMC) 93 % of control and 101 % of control | dose: 200.0 mg/kg/injection, schedule: Q04DX002 (ip), vehicle: carboxymethylcellulose (CMC) 103 % of control and 88 % of control | dose: 200.0 mg/kg/injection, schedule: Q04DX003 (ip), vehicle: carboxymethylcellulose (CMC) 98 % of control | [3] 101 % of control | dose: 400.0 mg/kg/injection, schedule: Q01DX009 (ip), vehicle: carboxymethylcellulose (CMC) 96 % of control | dose: 400.0 mg/kg/injection, schedule: Q04DX002 (ip), vehicle: carboxymethylcellulose (CMC) 98 % of control and 103 % of control

O=C(NCCCCCCCCNC(=O)N1CC1)N1CC1
inactive: dose: 0.19 mg/kg/injection, schedule: Q01DX009 (ip), vehicle: carboxymethylcellulose (CMC) 101 % of control | dose: 0.29 mg/kg/injection, schedule: Q01DX001 (ip), vehicle: carboxymethylcellulose (CMC) 98 % of control | dose: 0.29 mg/kg/injection, schedule: Q01DX009 (ip), vehicle: carboxymethylcellulose (CMC) 113 % of control | dose: 0.44 mg/kg/injection, schedule: Q01DX001 (ip), vehicle: carboxymethylcellulose (CMC) 95 % of control | dose: 0.44 mg/kg/injection, schedule: Q01DX009 (ip), vehicle: carboxymethylcellulose (CMC) 111 % of control | dose: 0.66 mg/kg/injection, schedule: Q01DX001 (ip), vehicle: carboxymethylcellulose (CMC) 96 % of control | dose: 0.66 mg/kg/injection, schedule: Q01DX009 (ip), vehicle: carboxymethylcellulose (CMC) 108 % of control | dose: 1.0 mg/kg/injection, schedule: Q01DX001 (ip), vehicle: carboxymethylcellulose (CMC) 101 % of control | dose: 1.0 mg/kg/injection, schedule: Q01DX009 (ip), vehicle: carboxymethylcellulose (CMC) 119 % of control | dose: 1.5 mg/kg/injection, schedule: Q01DX009 (ip), vehicle: carboxymethylcellulose (CMC) 109 % of control | dose: 2.25 mg/kg/injection, schedule: Q01DX009 (ip), vehicle: carboxymethylcellulose (CMC) 112 % of control | dose: 6.2 mg/kg/injection, schedule: Q01DX001 (ip), vehicle: carboxymethylcellulose (CMC) 102 % of control
